{"source": "patent US20250041624A1", "about": "“METHOD FOR ENHANCING ACTIVITY OF PHOTOSENSITIZER BY MAGNETIC FIELD” (PEKING UNIVERSITY, priority 2021, published 2025)", "key": {"[1]": {"experiment": "Reaction rate of fluorescent probe SOSG with 1O2 generated by photosensitizer under light and magnetic field", "type": "physicochemical", "conditions": "for first derivative of the I525 nm−t curve (normalized): RB and SOSG 10 μmol/L in water, 561 nm LED 5 mW·cm−2, time 0", "procedure": "(1) The photosensitizer Rose Bengal (RB) (the purity >98%, available from Saen Chemical Technologies (Shanghai) Ltd. Co., branded as Energy Chemical) and singlet oxygen fluorescent probe (SOSG) are dissolved in water (SOSG available from ThermoFisher Scientific (China) Co., Ltd.). In the resulting solution, the photosensitizer and SOSG are both at a concentration of 10 μmol/L. In a magnetic field with certain strength, the solutions are exposed to a 561 nm LED lamp (light emitting diode) at a power of 5 mW·cm^−2 and tested for fluorescence spectra at 0, 15, 30, 45, 60, 90, 120 and 180 seconds of light exposure, respectively, resulting in emission intensity ([…]) versus time (t) curves. The above fluorescence spectroscopy test is performed at a magnetic field strength of 0, 10, 35, 85, 180, 300 mT, respectively (external magnetic field provided by a neodymium iron boron permanent magnet).\n(2) The photosensitizer chlorin e6 (Ce6, Chlorin e6) (available from Saen Chemical Technologies (Shanghai) Ltd. Co., branded as Energy Chemical) and singlet oxygen fluorescent probe (SOSG) are dissolved in water, both with a concentration of 10 μmol/L in the resulting solutions. In a magnetic field with certain strength, the solutions are exposed to a 640 nm LED lamp (light emitting diode) at a power of 5 mW·cm^−2 and tested for fluorescence spectra at 0, 15, 30, 45, 60, 90, 120 and 180 seconds of light exposure, respectively, resulting in emission intensity ([…]) versus time (t) curves. The above fluorescence spectra are tested at a magnetic field strength of 0, 10, 30, 70, 150, 250 mT, respectively.\nThe external magnetic field is supplied by Neodymium Iron Boron Permanent Magnet. Fluorescence spectra are tested using Edinburg FLS980 Steady State Transient Fluorescence Spectrometer with a detector of PMT R928 and a light source of 450 W ozone-free xenon lamp with excitation wavelength of λex=488 nm.\nUnder irradiation conditions, photosensitizer is excited to produce singlet oxygen ^1O2, and fluorescent probe SOSG reacts with ^1O2 to give endoperoxide with green fluorescence emission characteristic, with emission wavelength of 525 nm under excitation wavelength conditions of 488 nm. The reaction has a reaction rate of r.\nIn the present invention, through application of light and a magnetic field, the magnetic field effects (MFEs) is quantified by mfeR, the change rate of the reaction rate r, mfeR=(rB−r0)/r0×100%, where r0 is the reaction rate at a magnetic field strength of 0 mT and rB is the reaction rate at a magnetic field strength of B mT. Where the reaction rate (r) is proportional to the slope of the tangent of a curve (first derivative of the curve) of the emission intensity (I525 nm) versus time (t). Under magnetic field strengths of 0, 10, 35, 85, 180, 300 mT and from the time of starting to illuminate and place in magnetic field (the time recorded as 0), the first derivative of the I525 nm−t curve is 1, 1.05, 1.09, 0.99, 1.12, 1.14 (normalized)."}, "HeLa cells": {"system": "HeLa cells", "experiment": "Annexin V-FITC/PI apoptosis flow cytometry of HeLa cells", "type": "cell-based", "conditions": "RB 30 μmol/L; for percentage of apoptotic cells: light 561 nm 5 mW·cm−2 10 min", "procedure": "(2) HeLa cells (2×10^4/well) are seeded in 6-well plates and cultured for 24 hours, added with RB solution (final concentration 30 μmol/L) or PBS buffer (final concentration 0.01 mol/L), and after treating 24 hours, cells are washed 3 times with PBS buffer.\nThe cells are placed under a magnetic field at 0, 250 or 800 mT, simultaneously with light (561 nm, 5 mW·cm^−2) or in the dark, and treated 10 minutes. After 24 hours incubation in the dark, cells are stained with Annexin V-FITC/PI Apoptosis Kit (available from Biyotime Biotechnology Co. Ltd), are detected by flow cytometry (BD FACSVerse, Becton Dickinson) and are statistically analysized three times every group, and results are shown in FIG. 13, in which Quadrant Q4 is for the number of healthy cells, Q1 is for the number of early apoptotic cells, Q2 is for the number of late apoptotic cells and Q3 is for the number of necrotic cells."}, "[2]": {"experiment": "Body weight, abnormal signs and H&E staining of major organs of treated mice", "type": "in vivo", "conditions": "all groups", "from_the_text": "Test (two): After sacrificing the mice on day 14, tumor tissue and major organs (heart, liver, spleen, lungs and kidney) are collected and detected histologically. Tumor tissue and major organs are fixed by 10% neutral formalin solution. Hematoxylin-Eosin (H&E) staining is used to analyze toxicity of light and magnetic field effects on tumor and normal organs. Terminal deoxynucleotidyl transferase-mediated dUTP nick end labeling (TUNEL) staining is used to detect apoptosis in tumor tissue, and expression of cleaved Caspase-3, Bax and Bcl-2 in tumor tissue is simultaneously detected."}}}
{"compound": "O=C1OC2(c3cc(I)c(O)c(I)c3Oc3c2cc(I)c(O)c3I)c2c(Cl)c(Cl)c(Cl)c(Cl)c21", "note": "[RB, Rose Bengal]", "values": [{"measurement": "first derivative of the I525 nm−t curve (normalized)", "setting": "[1]; MF 0 mT", "result": 1}, {"measurement": "first derivative of the I525 nm−t curve (normalized)", "setting": "[1]; MF 10 mT", "result": 1.05}, {"measurement": "first derivative of the I525 nm−t curve (normalized)", "setting": "[1]; MF 35 mT", "result": 1.09}, {"measurement": "first derivative of the I525 nm−t curve (normalized)", "setting": "[1]; MF 85 mT", "result": 0.99}, {"measurement": "first derivative of the I525 nm−t curve (normalized)", "setting": "[1]; MF 180 mT", "result": 1.12}, {"measurement": "first derivative of the I525 nm−t curve (normalized)", "setting": "[1]; MF 300 mT", "result": 1.14}, {"measurement": "mfer (change rate of reaction rate r of SOSG with 1O2)", "setting": "[1]; peak, MF 250 mT vs 0 mT, FIG. 1", "result": 25, "unit": "%"}, {"measurement": "percentage of apoptotic cells", "setting": "HeLa cells; 250 mT", "result": 75.9, "unit": "%"}, {"measurement": "percentage of apoptotic cells", "setting": "HeLa cells; 800 mT", "result": 32.9, "unit": "%"}, {"measurement": "percentage of apoptotic cells", "setting": "HeLa cells; no magnetic field", "result": 63.8, "unit": "%"}, {"measurement": "increase of percentage of apoptotic cells vs no magnetic field", "setting": "HeLa cells; light, 250 mT", "result": 19, "unit": "%"}, {"measurement": "systemic toxicity (H&E staining of major organs)", "setting": "[2]; heart, liver, spleen, lungs and kidney, day 14, FIG. 20", "result": "do not result in systemic toxicity"}, {"measurement": "body weight loss or other abnormal signs", "setting": "[2]; mice, 14 days", "result": "No body weight loss or other abnormal signs"}]}
